Measured values: the supplement of paper PMC11061612

Legend:
Experiment in all cases: Bliss excess, mean over the matrix (fraction); higher = more synergy
[1] = test system: TUR (Acute Myeloid Leukemia)
Summary of the method: (§1)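 After 24 hours at 37°C and 5% CO2 in 1536-well plates, cells in DMEM/F12 or RPMI plus 10% FBS received two-drug dose matrices for 72 hours. Viability came from CellTiter-Glo 2.0 luminescence and was scaled as inhibition, anchored at 0 by vehicle wells and at 1 by blank wells. Combination Emax is taken as the second-highest inhibition in the matrix, and Bliss excess as the observed combination effect less EA + EB − EA·EB, with EA and EB the single-agent effects.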

[2] = test system: MOLT-13 (T-Lymphoblastic Leukemia)
Summary of the method: as §1

[3] = test system: SUP-M2 (T-Cell Non-Hodgkin's Lymphoma)
Summary of the method: as §1

[4] = test system: SK-N-SH (Neuroblastoma)
Summary of the method: as §1

[5] = test system: AM-38 (Glioblastoma)
Summary of the method: as §1

[6] = test system: UACC-257 (Melanoma)
Summary of the method: as §1

[7] = test system: MS-1 (Small Cell Lung Carcinoma)
Summary of the method: as §1

[8] = test system: LCLC-103H (Non-Small Cell Lung Carcinoma)
Summary of the method: as §1

[9] = test system: IST-MEL1 (Melanoma)
Summary of the method: as §1

[10] = test system: CL-11 (Colorectal Carcinoma)
Summary of the method: as §1

[11] = test system: Raji (Burkitt's Lymphoma)
Summary of the method: as §1

[12] = test system: T47D (Breast Carcinoma)
Summary of the method: as §1

[13] = test system: ES6 (Ewing's Sarcoma)
Summary of the method: as §1

[14] = test system: NCI-H596 (Other Solid Carcinomas)
Summary of the method: as §1

[15] = test system: NCI-H2373 (Mesothelioma)
Summary of the method: as §1

[16] = test system: SNU-C2B (Colorectal Carcinoma)
Summary of the method: as §1

[17] = test system: SKG-IIIa (Cervical Carcinoma)
Summary of the method: as §1

[18] = test system: CPC-N (Small Cell Lung Carcinoma)
Summary of the method: as §1

[19] = test system: NCI-H226 (Mesothelioma)
Summary of the method: as §1

[20] = test system: NB1 (Neuroblastoma)
Summary of the method: as §1

| Structure (SMILES) | Bliss excess [1] | Bliss excess [2] | Bliss excess [3] | Bliss excess [4] | Bliss excess [5] | Bliss excess [6] | Bliss excess [7] | Bliss excess [8] | Bliss excess [9] | Bliss excess [10] | Bliss excess [11] | Bliss excess [12] | Bliss excess [13] | Bliss excess [14] | Bliss excess [15] | Bliss excess [16] | Bliss excess [17] | Bliss excess [18] | Bliss excess [19] | Bliss excess [20] |
| --- | --- | --- | --- | --- | --- | --- | --- | --- | --- | --- | --- | --- | --- | --- | --- | --- | --- | --- | --- | --- |
| CC1(C)CCC(CN2CCN(c3ccc(C(=O)NS(=O)(=O)c4ccc(NCC5CCOCC5)c([N+](=O)[O-])c4)c(Oc4cnc5[nH]ccc5c4)c3)CC2)=C(c2ccc(Cl)cc2)C1 [Venetoclax] + COc1cc(Nc2ncc3c(n2)-c2ccc(Cl)cc2C(c2c(F)cccc2OC)=NC3)ccc1C(=O)O [Alisertib] (first compound max 1 µM, 7x7, partner max 10 µM) | 0.077 | 0.0148 | -0.0043 | 0.0326 | 0.0101 | -0.0234 | 0.0861 | -0.0132 | -0.0547 | -0.0062 | -0.006 | -0.0093 | -0.0324 | -0.0501 | -0.0293 | 0.0168 | -0.0544 | -0.047 | -0.089 | 0.117 |
| CC1(C)CCC(CN2CCN(c3ccc(C(=O)NS(=O)(=O)c4ccc(NCC5CCOCC5)c([N+](=O)[O-])c4)c(Oc4cnc5[nH]ccc5c4)c3)CC2)=C(c2ccc(Cl)cc2)C1 [Venetoclax] + C[C@@H]1COCCN1C2=NC(=NC(=C2)C3(CC3)[S@](=N)(=O)C)C4=C5C=CNC5=NC=C4 [AZD6738] (first compound max 1 µM, 7x7, partner max 10 µM) | -0.0024 | 0.0201 | 0.0239 | -0.0671 | 0.0223 | -0.0092 | 0.0066 | -0.0085 | -0.019 | -0.0395 | 0.0091 | -0.0634 | -0.0314 | -0.0571 | -0.0052 | -0.0102 | -0.021 | -0.0526 | -0.0383 | -0.0444 |
| CC1(C)CCC(CN2CCN(c3ccc(C(=O)NS(=O)(=O)c4ccc(NCC5CCOCC5)c([N+](=O)[O-])c4)c(Oc4cnc5[nH]ccc5c4)c3)CC2)=C(c2ccc(Cl)cc2)C1 [Venetoclax] + C[C@@H](Nc1cc(F)cc(F)c1)c1cc(C(=O)N(C)C)cc2c(=O)cc(N3CCOCC3)oc12 [AZD8186] (first compound max 1 µM, 7x7, partner max 3 µM) | 0.0157 | 0.095 | 0.0106 | 0.0249 | -0.0259 | -0.0538 | 0.0357 | -0.0504 | 0.0253 | -0.0397 | 0.0114 | -0.0159 | -0.0661 | -0.0378 | -0.0473 | -0.0408 | -0.0248 | 0.0256 | -0.0577 | -0.047 |
| CC1(C)CCC(CN2CCN(c3ccc(C(=O)NS(=O)(=O)c4ccc(NCC5CCOCC5)c([N+](=O)[O-])c4)c(Oc4cnc5[nH]ccc5c4)c3)CC2)=C(c2ccc(Cl)cc2)C1 [Venetoclax] + Cc1cc2ncnn2cc1Nc1ncc2c(n1)n(C1CCOCC1)c(=O)n2C [AZD7648] (first compound max 1 µM, 7x7, partner max 10 µM) | -0.0016 | 0.063 | 0.0218 | -0.0125 | -0.0098 | -0.0235 | 0.0008 | -0.0416 | -0.0486 | -0.0255 | 0.0289 | -0.0459 | -0.0359 | -0.0119 | -0.056 | 0.0034 | 0.0161 | -0.0219 | -0.0552 | -0.0358 |
| CC1(C)CCC(CN2CCN(c3ccc(C(=O)NS(=O)(=O)c4ccc(NCC5CCOCC5)c([N+](=O)[O-])c4)c(Oc4cnc5[nH]ccc5c4)c3)CC2)=C(c2ccc(Cl)cc2)C1 [Venetoclax] + Cn1cnc2c(F)c(Nc3ccc(Br)cc3Cl)c(C(=O)NOCCO)cc21 [Selumetinib] (first compound max 1 µM, 7x7, partner max 3 µM) | -0.024 | 0.241 | 0.0165 | 0.083 | -0.108 | -0.0487 | -0.0273 | -0.0542 | -0.0654 | -0.0494 | -0.003 | -0.0624 | -0.0321 | -0.0764 | -0.0468 | -0.0107 | -0.0275 | -0.0454 | -0.0799 | -0.0466 |
